The values below come from US10633337B2, “Crystal forms of a 9-aminomethyl substituted tetracycline compound and a preparation method thereof” (KBP Biosciences Co., Ltd., priority 2016, dated 2020).

Format in all cases: physicochemical
Series [1] in a line: Investigation of the stability of crystal form III at high humidity. The protocol:
It is also found in the study that not all of crystal forms I, II, III, IV, V, VI, VII and VIII of the compound represented by formula (1) have better stability than the amorphous form. Specifically, in the investigation of the stability of crystal form III, the content of the compound is reduced by about 10% after being placed in a high humidity condition of 40° C./75%±5% RH for 14 days.
The data for investigating the stability was mentioned as above.

The nature of series [2]: Assay 1: stability (influencing factor tests: high temperature, high humidity, illumination) of amorphous form and crystal forms I, II, VII; content and purity by HPLC. Particulars: for stability (conclusion in words): high temperature, high humidity and illumination. How it is done: Assay 1: Stability for Amorphous Form and Crystal Forms of the Present Compound
Tested sample: amorphous form, crystal form I, crystal form II, and crystal form VII of the compound represented by formula (1) were prepared according to Examples;
(§1) Test Conditions for Investigating the Influencing Factors:
High temperature tests: amorphous form, crystal form I, crystal form II, and crystal form VII of the compound represented by formula (1) were laid on a dry and clean watch glass, and kept at 60° C.±5° C. for 14 days. Samples were taken respectively on Day 7 and Day 14. The content and the purity of the compound represented by formula (1) were measured, and compared with those of the sample taken on Day 0.
High humidity test: amorphous form, crystal form I, crystal form II, and crystal form VII of the compound represented by formula (1) were laid on a dry and clean watch glass, and kept at 25° C.±2° C., RH75%±5%, 40° C.±2° C., RH75%±5% for 14 days. Samples were taken respectively on Day 7 and Day 14. The content and the purity of the compound represented by formula (1) were measured, and compared with those of the sample taken on Day 0.
Illumination test: amorphous form, crystal form I, crystal form II, and crystal form VII of the compound represented by formula (1) were laid on a dry and clean watch glass, and kept at an illuminance of 4500 Lx±500 Lx in an illumination box for 14 days. Samples were taken respectively on Day 7 and Day 14. The content and the purity of the compound represented by formula (1) were measured, and compared with those of the sample taken on Day 0.
(§2) Content: it was measured by using an external standard method in accordance with the High Performance Liquid Chromatography in Chinese Pharmacopoeia, Appendix V D, Edition 2010.
(§3) Purity: it was measured by using an area normalization method in accordance with the High Performance Liquid Chromatography in Chinese Pharmacopoeia, Appendix V D, Edition 2010.

A short description of series [3]: Assay 2: stability (influencing factor tests) of crystal form II and crystal form IV; content by HPLC. Particulars: for stability (conclusion in words): high temperature, high humidity and illumination. The protocol:
Assay 2: Stability for Crystal Form II and Crystal Form IV of the Present Compound
Tested sample: crystal form II and crystal form IV of the compound represented by formula (1) were prepared according to Examples;
as §1
High temperature tests: crystal form II and crystal form IV of the compound represented by formula (1) were laid on a dry and clean watch glass, and kept at 60° C.±5° C. for 15 days. Samples were taken respectively on Day 5 and Day 15. The content and the purity of the compound represented by formula (1) were measured, and compared with those of the sample taken on Day 0.
High humidity test: crystal form II and crystal form IV of the compound represented by formula (1) were laid on a dry and clean watch glass, and kept at 25° C.±2° C., RH92.5%±5%, 25° C.±2° C., RH75%±5%, 40° C.±2° C., RH75%±5% for 15 days. Samples were taken respectively on Day 5 and Day 15. The content and the purity of the compound represented by formula (1) were measured, and compared with those of the sample taken on Day 0.
Illumination test: crystal form II and crystal form IV of the compound represented by formula (1) were laid on a dry and clean watch glass, and kept at an illuminance of 4500 Lx±500 Lx in an illumination box for 15 days. Samples were taken respectively on Day 5 and Day 15. The content and the purity of the compound represented by formula (1) were measured, and compared with those of the sample taken on Day 0.
as §2, §3

The mark [4] stands for this setting: Day 0 (start of stability test).
[5] abbreviates: High temperature 60° C., Day 14.
Setting [6] is: Illumination 45001x ± 5001x, Day 14.

Take `CN(C)c1cc(CN2CC3CC3C2)c(O)c2c1C[C@H]1C[C@H]3[C@H](N(C)C)C(O)=C(C(N)=O)C(=O)[C@@]3(O)C(O)=C1C2=O` (stereo partly drawn) [Crystal form III, (4S,4aS,5aR,12aS)-9-(3-azabicyclo[3.1.0]hexan-3-ylmethyl)-4,7-bis(dimethylamino)-3,10,12,12a-tetrahydroxy-1,11-dioxo-1,4,4a,5,5a,6,11,12a-octahydrotetracene-2-carboxamide]: in series [1] (high humidity 40° C./75%±5% RH for 14 days), the reduction of content entry was “about 10%”. The “stability compared with amorphous form” value in series [1] (high humidity condition) is on record as “worse stability than the amorphous form”.
As to `CN(C)c1cc(CN2CC3CC3C2)c(O)c2c1C[C@H]1C[C@H]3[C@H](N(C)C)C(O)=C(C(N)=O)C(=O)[C@@]3(O)C(O)=C1C2=O` (stereo partly drawn) [Amorphous form, (4S,4aS,5aR,12aS)-9-(3-azabicyclo[3.1.0]hexan-3-ylmethyl)-4,7-bis(dimethylamino)-3,10,12,12a-tetrahydroxy-1,11-dioxo-1,4,4a,5,5a,6,11,12a-octahydrotetracene-2-carboxamide], the Content in series [2] (25° C./75% ± 5% RH, Day 7) was found to be 98.7%; in series [2] (25° C./75% ± 5% RH, Day 14) it was 93.3%; in series [2] (40° C./75% ± 5% RH, Day 7), 94.7%; in series [2] (40° C./75% ± 5% RH, Day 14) it was 89.6%; in series [2] (setting [4]) it was 97.1%; in series [2] (High temperature 60° C., Day 7), 94.5%. In addition, the figures for the Content in series [2] (setting [5]) and in series [2] (setting [6]) were 90.5% and 85.0%, respectively. The Purity in series [2] (25° C./75% ± 5% RH, Day 7) is listed as 97.1%; in series [2] (25° C./75% ± 5% RH, Day 14) it was 96.7%; in series [2] (40° C./75% ± 5% RH, Day 7), 94.9%; in series [2] (40° C./75% ± 5% RH, Day 14), 92.9%; in series [2] (setting [4]), 98.0%; in series [2] (High temperature 60° C., Day 7) it was 95.8%. Moreover, the Purity is given as 94.3% in series [2] (setting [5]) and 92.9% in series [2] (setting [6]). The reduction of content came out at 6.6% in series [2] (after 14 days at a high temperature of 60° C.), 7.5% in series [2] (after 14 days at high humidity 40° C./75%±5% RH) and 12.1% in series [2] (after 14 days under illumination of 4500 lx±500 lx). Besides, the “stability (conclusion in words)” value in series [2] is “unstable”.
With `CN(C)c1cc(CN2CC3CC3C2)c(O)c2c1C[C@H]1C[C@H]3[C@H](N(C)C)C(O)=C(C(N)=O)C(=O)[C@@]3(O)C(O)=C1C2=O` (single isomer, unassigned) [Crystal form IV], the Content in series [3] (25° C./RH 75% ± 5%, Day 15) was found to be 93.1%; in series [3] (25° C./RH 92.5% ± 5%, Day 15), 90.3%; in series [3] (40° C./RH 75% ± 5%, Day 15), 74.6%; in series [3] (60° C., Day 15), 88.6%; in series [3] (4500 Lx ± 500 Lx, Day 15) it was 74.6%; in series [3] (setting [4]) it was 97.0%. Further, the reduction of content result in series [3] (high temperature of 60° C. for 15 days) is listed as “about 10%”; in series [3] (illumination 4500 Lx±500 Lx for 15 days), 23.1%. For the same compound, the “stability (conclusion in words)” value in series [3] is “changed very much”. Moreover, in series [3] (illumination condition or high temperature condition), the “stability compared with amorphous form” value was “worse stability than the amorphous form”.
In the case of `CN(C)c1cc(CN2CC3CC3C2)c(O)c2c1C[C@H]1C[C@H]3[C@H](N(C)C)C(O)=C(C(N)=O)C(=O)[C@@]3(O)C(O)=C1C2=O` (stereo partly drawn) [Crystal form VII, (4S,4aS,5aR,12aS)-9-(3-azabicyclo[3.1.0]hexan-3-ylmethyl)-4,7-bis(dimethylamino)-3,10,12,12a-tetrahydroxy-1,11-dioxo-1,4,4a,5,5a,6,11,12a-octahydrotetracene-2-carboxamide], the Content in series [2] (25° C./75% ± 5% RH, Day 7) stood at 96.1%; in series [2] (25° C./75% ± 5% RH, Day 14), 95.8%; in series [2] (40° C./75% ± 5% RH, Day 7), 94.6%; in series [2] (40° C./75% ± 5% RH, Day 14) it was 94.5%; in series [2] (setting [4]), 95.8%; in series [2] (High temperature 60° C., Day 7) it was 95.2%. The Content in series [2] (setting [5]) is reported as 93.6%; in series [2] (setting [6]), 95.7%. Moreover, the Purity was 97.1% in series [2] (25° C./75% ± 5% RH, Day 7); 97.2% in series [2] (25° C./75% ± 5% RH, Day 14); 96.4% in series [2] (40° C./75% ± 5% RH, Day 7); 95.7% in series [2] (40° C./75% ± 5% RH, Day 14); 97.4% in series [2] (setting [4]); 96.8% in series [2] (High temperature 60° C., Day 7). In addition, the Purity in series [2] (setting [5]) stood at 96.2%; in series [2] (setting [6]), 96.6%. In series [2], the “stability (conclusion in words)” value is reported as “relatively high stability”.
On to `CN(C)c1cc(CN2CC3CC3C2)c(O)c2c1C[C@H]1C[C@H]3[C@H](N(C)C)C(O)=C(C(N)=O)C(=O)[C@@]3(O)C(O)=C1C2=O` (single isomer, unassigned) [Crystal form II], for which the Content in series [2] (25° C./75% ± 5% RH, Day 7) turned out to be 95.9%; in series [2] (25° C./75% ± 5% RH, Day 14), 96.1%; in series [2] (40° C./75% ± 5% RH, Day 7) it was 96.5%; in series [2] (40° C./75% ± 5% RH, Day 14) it was 96.1%; in series [2] (setting [4]) it was 94.5%; in series [2] (High temperature 60° C., Day 7) it was 95.8%. Moreover, the Content in series [2] (setting [5]) amounted to 96.0%; in series [2] (setting [6]), 96.1%; in series [3] (25° C./RH 75% ± 5%, Day 15), 98.3%; in series [3] (25° C./RH 92.5% ± 5%, Day 15), 96.7%; in series [3] (40° C./RH 75% ± 5%, Day 15), 98.0%; in series [3] (60° C., Day 15), 97.0%. The Content in series [3] (4500 Lx ± 500 Lx, Day 15) is given as 97.8%; in series [3] (setting [4]), 98.4%. The Purity came out at 96.3% in series [2] (25° C./75% ± 5% RH, Day 7); 96.2% in series [2] (25° C./75% ± 5% RH, Day 14); 96.2% in series [2] (40° C./75% ± 5% RH, Day 7); 96.1% in series [2] (40° C./75% ± 5% RH, Day 14); 96.4% in series [2] (setting [4]); 96.1% in series [2] (High temperature 60° C., Day 7). Besides, the figures for the Purity in series [2] (setting [5]) and in series [2] (setting [6]) were 96.0% and 96.2%, respectively. For the same compound, the “stability (conclusion in words)” value in series [2] is given as “relatively high stability”; in series [3], “higher stability than crystal form IV”.
For `CN(C)c1cc(CN2CC3CC3C2)c(O)c2c1C[C@H]1C[C@H]3[C@H](N(C)C)C(O)=C(C(N)=O)C(=O)[C@@]3(O)C(O)=C1C2=O` (stereo partly drawn) [Crystal form I, (4S,4aS,5aR,12aS)-9-(3-azabicyclo[3.1.0]hexan-3-ylmethyl)-4,7-bis(dimethylamino)-3,10,12,12a-tetrahydroxy-1,11-dioxo-1,4,4a,5,5a,6,11,12a-octahydrotetracene-2-carboxamide], the Content in series [2] (25° C./75% ± 5% RH, Day 7) amounted to 97.2%; in series [2] (25° C./75% ± 5% RH, Day 14), 98.2%; in series [2] (40° C./75% ± 5% RH, Day 7) it was 97.4%; in series [2] (40° C./75% ± 5% RH, Day 14), 97.5%; in series [2] (setting [4]), 97.0%; in series [2] (High temperature 60° C., Day 7), 97.7%. Also, the Content in series [2] (setting [5]) is 97.3%; in series [2] (setting [6]) it was 97.8%. The Purity in series [2] (25° C./75% ± 5% RH, Day 7) is given as 98.1%; in series [2] (25° C./75% ± 5% RH, Day 14), 98.1%; in series [2] (40° C./75% ± 5% RH, Day 7) it was 98.0%; in series [2] (40° C./75% ± 5% RH, Day 14), 97.8%; in series [2] (setting [4]), 98.2%; in series [2] (High temperature 60° C., Day 7), 97.9%. The Purity in series [2] (setting [5]) amounted to 97.7%; in series [2] (setting [6]) it was 98.1%. Besides, the “stability (conclusion in words)” value in series [2] is given as “relatively high stability”.
